Measurements from US20080070237A1, “Npas3 Mutant Mice and Uses for Screening and Testing Therapies for Schizophrenia and Related Neurological Disorders” (priority 2003, published 2008).
Where a name gives a salt, the structure may show the parent alone. Read-outs that look alike come from different tables or passages of the source.

Experiments:
[1] = test system: Npas3+/+ control mice; assay type: in vivo, mouse
Description: (§1) Locomotor Activity Tests. For all locomotor experiments, activity is measured in a 41×41×30 cm Omnitech Digiscan activity monitor equipped with 16 pairs of photodetector-LED beams along the x and y axis. (Accuscan Electronics, Columbus, Ohio). […] After the acclimation period, Baseline Locomoter Activity Test results are recorded for each test mouse. Subsequently, locomotor activity is tested following pharmacological challenges of three neurotransmitter pathways involved in schizophrenia and other neurological disorders. The pathways and the drugs used to challenge each include:
(§2) a. Methamphetamine (a dopamine pathway agonist) 1.0 mg/kg in the form of D-methamphetamine-HCL (Sigma; St. Louis, Mo.). Methamphetamine is a strong dopamine agonist that will activate D1 and D2 receptor signaling.
(§3) b. Haloperidol (a dopamine pathway antagonist) 0.3 mg/kg or 1.0 mg/kg (Tocris; Ellisville, Mo.).
(§4) The test drug is 0.3 mg/kg clozapine (Sigma; St. Louis, Mo.). An atypical neuroleptic agent, clozapine, which has a high affinity for serotonin 5-HT2 and 5-HT6 receptors, is administered to determine the involvement of serotonergic pathways. Although clozapine can also antagonize both D1 and D2-like receptors, ten times higher concentrations are necessary to inhibit dopamine-dependent hyperactivity
(§5) The test drugs are 1.0 mg/kg MK-801 or 0.3 mg/kg MK-801 (ICN Biomedicals Inc.; Aurora, Ohio). MK-801 is a noncompetitive NMDA receptor antagonist.
(§6) Each drug is administered in a subcutaneous injection volume of 5 mL/kg body weight. Post-challenge activity is measured for three hours. Horizontal activity counts (scored by visual observance or breaking a light beam) and total distance are recorded during the pre- and post-challenge periods at 3-minute intervals with VersaMax software. All Locomoter Activity Tests are performed on mice at 7-9 weeks of age, with n=12. All values are expressed as mean±SEM. Statistical analyses are performed using appropriate analysis of variance (ANOVA) followed by adapted post hoc comparisons.

[2] = test system: Npas3−/− mice; assay type: in vivo, mouse
Description: as §1, §2, §3, §4, §5, §6

[3] = FIG. 28 dose of MK-801 (not stated at the place; b105: 1.0 or 0.3 mg/kg), subcutaneous
[4] = FIG. 28 dose of MK-801, subcutaneous
[5] = lower dose 0.1 mg/kg, data not shown
[6] = 0.3 mg/kg subcutaneous, post-challenge activity measured for three hours
[7] = 1.0 mg/kg subcutaneous, post-challenge activity measured for three hours

C[C@]12N[C@H](Cc3ccccc31)c1ccccc12 [MK-801]
horizontal locomotor activity after drug challenge [1, 3]: increased locomotor activity
stereotype (stereotypy) after drug challenge [1, 4]: did not increase the levels of stereotype
locomotor activity after drug challenge [1, 5]: did not induce hyperactivity
horizontal locomotor activity after drug challenge [2, 3]: dramatic suppression of locomotor activity
stereotype (stereotypy) after drug challenge [2, 4]: induced hyperstereotype
locomotor activity after drug challenge [2, 5]: potently activated locomotion

O=C(CCCN1CCC(O)(c2ccc(Cl)cc2)CC1)c1ccc(F)cc1 [haloperidol, Haloperidol]
horizontal locomotor activity after drug challenge [1, 6]: substantial impairment in locomotor activity
horizontal locomotor activity after drug challenge [2, 6]: partial reduction in activity

CN[C@@H](C)Cc1ccccc1 [methamphetamine, D-methamphetamine-HCL]
horizontal locomotor activity after drug challenge [1, 7]: increases locomotor behavior
horizontal locomotor activity after drug challenge [2, 7]: failure of methamphetamine to increase locomotor activity
